Source: patent US8119609B2, “Methods of treating diabetic retinopathy with pericyte apoptosis inhibitors” (Merck Sante, priority 2000, dated 2012)
Values joined by “and” are separate entries in the source; they are usually repeats but may differ in a detail not shown here. Identical values can stand only once. “Also recorded” adds a separate entry of the source.

Columns and labels:
bovine retinal pericytes [1] = test: Determination of ceramides and diacylglycerols (DAG) in pericytes cultured with AGE-methylglyoxal (DAG-kinase, 32P-ATP); assay type: cell-based; settings: for % inhibition of the stimulated production of DAG induced by AGE-methylglyoxal / % inhibition of the stimulated production of ceramides induced by AGE-methylglyoxal: two passages
Method: The ceramides and diacylglycerols were measured in the pericytes cultured during two passages with […] of AGE-methylglyoxal or their control according to the method described by Preiss et al. (1986). This method is based on the phosphorylation of the ceramides and DAG by purified diacylglycerol kinase (DAG-kinase) from Escherichia coli in the presence of ATP labeled with ^32P on the γ phosphor in accordance with the diagram shown in FIG. 3.
The pericytes (2 or 3 dishes, 6 cm in diameter) were rinsed, recovered by scraping with a rubber policeman in 0.5 ml of water on ice and the dish rinsed by a supplementary 0.5 ml (volume of 1 ml of cell suspension) to which was added 10 μl of a solution of (9,10-^3H)-triacylglycerol at 0.5 μCi/ml.
The total lipids were then extracted by the method of Bligh and Dyer (1959). To this cell suspension (1 ml of PBS) was added 3.75 ml of a chloroform: methanol (2:1, v/v) mixture containing 80 μl of BHT (5 mM) in solution in ethanol. The solutions were then vortexed for 30 seconds and allowed to stand for a minimum of 30 minutes, then 1.25 ml of NaCl (0.9%) and 1.25 ml of chloroform were added to separate the phases. After centrifugation (700 g, 5 minutes), the bottom organic phase was collected and extraction of the aqueous phase was repeated twice with 1.5 ml of chloroform. The lipid extracts were then collected and the chloroform evaporated under a nitrogen stream. The aqueous phase enabled determination of the total proteins by staining with amide black and the organic phase was recovered in an Eppendorf tube then evaporated under nitrogen.
A standard range of ceramides (25 to 2500 ng) and DAG (25 to 25,000 ng) containing the same quantity of tritium-labeled triacylglycerol was prepared in parallel. The lipids were then solubilized in 20 μl of a solution of detergents (7.5% of n-octylglucopyranoside, […] and 1 mM of DETAPAC) by 1 minute of sonication followed by incubation for 15 minutes at ambient temperature. The reaction was started by addition of 50 μl of reaction buffer (imidazole 100 mM, NaCl 100 mM, MgCl2 25 mM, EGTA 2 mM, pH 6.6), 20 μl of a solution of DAG-kinase (4.86 mU) containing 10 mM of DTT and 10 μl of [γ-^32P] ATP at 5 mCi/ml diluted 10-fold in a solution containing 10 mM of unlabeled ATP, 100 mM of imidazole and 1 mM of DETAPAC (pH 6.6). The reaction was allowed to continue for 1 hour at ambient temperature and then stopped by 1 ml of the mixture chloroform:methanol: 1N hydrochloric acid (100:100:1, v/v/v), 170 μl of a buffer containing 10 mM of HEPES, 135 mM of NaCl, 1.5 mM of CaCl2, 0.5 mM of MgCl2 and 5.6 mM of glucose (pH 7.4) then 30 μl of EDTA 100 mM. The mixture was then vortexed, allowed to stand for 15 minutes at ambient temperature, then centrifuged (10,000 g, 5 minutes) at ambient temperature.
The organic phase (bottom) was collected and evaporated under nitrogen. The lipids were then taken up with 300 μl of the mixture ether:methanol (9:1, v/v) and deposited on a silica plate. The ceramides-1-phosphate were separated from the phosphatidic acid and triacylglycerols using the mixture chloroform:methanol: acetic acid (65:15:5, v/v/v) as migration solvent.
Exposure of the silica plate to an autoradiographic film (30 minutes, 80° C.) allowed visualization of the different ^32P-labeled lipids. The spots corresponding to the ceramides-1-phosphate and phosphatidic acid as well as the last 3 cm before the migration front (corresponding to the triacylglycerols) were delimited with a graphite crayon and scratched. The silica was recovered in counting pots, moistened with 200 μl of methanol, 200 μl of distilled water and 2 ml of scintillation liquid (Picofluor) for 2 hours before the addition of 8 ml of the scintillation liquid. The radioactivity emitted by the ^32P or the ^3H was then counted in each pot. The radioactivity emitted by the mother solution of (9,10-^3H)-triacylglycerol was also counted which allowed calculation of the reaction yield for each sample. […]

bovine retinal pericytes [2] = test: Apoptosis of bovine retinal pericytes cultured with AGE-methylglyoxal, annexin V / propidium iodine staining; assay type: cell-based
Method: The effects of AGE were tested on a uniform batch of cells (bovine retinal pericytes stemming from the same primary culture). When they were at confluence, the bovine retinal pericytes in primary culture were trypsinated. After having allowed them to become attached for 4 hours at 37° C., the medium and the cell debris that had not adhered to the matrix were eliminated and the culture medium (10% of FCS for bovine retinal pericytes) was added. An AGE solution (or its control) was added to the culture medium until reaching a concentration of […] to test the effects of AGE. The cultures were then continued for 1 or 2 passages with the agents, either for 7 or 15 days, respectively, for the bovine retinal pericytes.
Apoptosis was detected and quantified in pericytes cultured during two passages with 2 μM of AGE-methylglyoxal or its control using the technique based on detecting apoptotic cells with annexin V and detecting necrotic cells with propidium iodine.
The presence of phosphatidylserine (PS) on the external layer of the plasma membrane, which is characteristic of apoptotic cells, can be detected using annexin V labeled with fluorescein. This protein has a very strong affinity for PS. Staining is performed in the presence of an intercalating DNA dye, propidium iodine, similar to ethidium bromide to distinguish the apoptotic cells from possibly present necrotic cells which also fix annexin V. For this labeling the pericytes must be subconfluent (75% of confluence) and, thus, cultured for only about 12 days with AGE-methylglyoxal or BSA control.
The bovine retinal pericytes (dish 3.5 cm in diameter) were rinsed three times with PBS then incubated for 10 minutes in the dark with 500 μl of a HEPES buffer containing 10 μl of the fluorescein-labeled annexin V solution and 10 μl of the propidium iodine solution provided in the determination kit. The apoptotic cells as well as the necrotic cells fixed the annexin V and thus appeared green under the fluorescence microscope, but only the nuclei of the necrotic cells were dyed red by the propidium iodine. The percentages of necrotic cells and apoptotic cells were determined on 10 different fields, i.e., on a total of 300 to 800 cells.
Apoptosis was detected and quantified by labeling with annexin V and propidium iodine in bovine retinal pericytes during two passages with 2 μM of AGE-methylglyoxal or their control (see Material and Methods). […] Fluorescein-labeled annexin V stained green the plasma membranes of the apoptotic and necrotic cells, but only the necrotic cells whose cells had lost their integrity, were permeable to propidium iodide which stained their nuclei red. […] The cells were cultured during two passages (approximately 15 days) in the presence of 2 μM of AGE-methylglyoxal or control BSA. The results are expressed as % of apoptotic cells in the total cell population.

retina of diabetic rats = settings: cited from earlier work; for loss / disappearance of pericytes in the retina of diabetic rats: literature
[3] = 10 μM, listed as Nα-acetyl-cysteine
[4] = 50 μM, listed as Nα-acetyl-cysteine

## S=C(S)OC1CC2CC1C1CCCC21 (centres unmarked) [D609]
Bovine retinal pericytes [1]; 9.4 μM
  % inhibition of the stimulated production of DAG induced by AGE-methylglyoxal: 80%
  % inhibition of the stimulated production of ceramides induced by AGE-methylglyoxal: 95%
Bovine retinal pericytes [1]; 30 μM
  % inhibition of the stimulated production of DAG induced by AGE-methylglyoxal: 65%
  % inhibition of the stimulated production of ceramides induced by AGE-methylglyoxal: complete inhibition
Bovine retinal pericytes [2]; 9.4 μM, two passages
  % inhibition of the apoptosis induced by AGE-methylglyoxal: 40%
Bovine retinal pericytes [2]; 30 μM, two passages
  % inhibition of the apoptosis induced by AGE-methylglyoxal: 47% and 50%

## CC(=O)N[C@@H](CS)C(=O)O [N-acetyl-L-cysteine, Nα-acetyl-L-cysteine]
Bovine retinal pericytes [1]; [3]
  % inhibition of the stimulated production of DAG induced by AGE-methylglyoxal: normalized
  % inhibition of the stimulated production of ceramides induced by AGE-methylglyoxal: normalized
Bovine retinal pericytes [1]; [4]
  % inhibition of the stimulated production of DAG induced by AGE-methylglyoxal: normalized
  % inhibition of the stimulated production of ceramides induced by AGE-methylglyoxal: normalized
Bovine retinal pericytes [2]; 10 μM, two passages
  % inhibition of the apoptosis induced by AGE-methylglyoxal: protected the pericytes against the apoptosis; also recorded: complete inhibition
Bovine retinal pericytes [2]; 10 μM, two passages, listed as Nα-acetyl-cysteine
  % inhibition of the apoptosis induced by AGE-methylglyoxal: normalized
Bovine retinal pericytes [2]; 50 μM, two passages
  % inhibition of the apoptosis induced by AGE-methylglyoxal: protected the pericytes against the apoptosis
Bovine retinal pericytes [2]; 50 μM, two passages, listed as Nα-acetyl-cysteine
  % inhibition of the apoptosis induced by AGE-methylglyoxal: normalized

## N=C(N)NN [aminoguanidine]
Retina of diabetic rats
  loss / disappearance of pericytes in the retina of diabetic rats: prevents
Retina of diabetic rats; streptozotocin diabetic rat model (Hammes et al., 1991)
  reduction of the number of acellular capillaries in the retina: 80%

## Nc1ncc(-c2ccc(O)cc2)nc1Cc1ccccc1 [coelenteramine]
Bovine retinal pericytes [2]; 2 μM, two passages
  % inhibition of the apoptosis induced by AGE-methylglyoxal: 60% and ~50%

## CNCCCN1c2ccccc2CCc2ccccc21 [desipramine, 10,11-dihydro-5-(3-(methylamino)propyl)-5H-dibenz(b,f)azepine]
Bovine retinal pericytes [1]; 0.1 μM
  % inhibition of the stimulated production of DAG induced by AGE-methylglyoxal: 17%
  % inhibition of the stimulated production of ceramides induced by AGE-methylglyoxal: 78%
Bovine retinal pericytes [1]; 0.3 μM
  % inhibition of the stimulated production of DAG induced by AGE-methylglyoxal: 13%
  % inhibition of the stimulated production of ceramides induced by AGE-methylglyoxal: 95%
Bovine retinal pericytes [1]; 1 μM (results not shown)
  baseline levels of the ceramides and DAG in the cells cultured with BSA control: affected
Bovine retinal pericytes [2]; 0.3 μM (b168 prints 0.3 mM), two passages
  % inhibition of the apoptosis induced by AGE-methylglyoxal: 50%
Bovine retinal pericytes [2]; 1 μM (results not shown)
  baseline apoptosis rate of the control cells: affected
Bovine retinal pericytes [2]; Bos taurus, 0.1 μM, two passages, read-out: % inhibition of the apoptosis induced by AGE-methylglyoxal
  inhibition at 0.1 µM: 35%
Bovine retinal pericytes [2]; Bos taurus, 0.3 μM (b168 prints 0.3 mM), two passages, read-out: % inhibition of the apoptosis induced by AGE-methylglyoxal
  inhibition at 0.3 µM: 35%

## O=c1c2ccccc2[se]n1-c1ccccc1 [ebselen]
Bovine retinal pericytes [2]; Bos taurus, 5 μM, two passages, read-out: % inhibition of the apoptosis induced by AGE-methylglyoxal
  inhibition at 5 µM: 94%
Bovine retinal pericytes [2]; Bos taurus, 10 μM, two passages, read-out: % inhibition of the apoptosis induced by AGE-methylglyoxal
  inhibition at 10 µM: 88%

## CCCC[C@@H](C)[C@@H](OC(=O)C[C@@H](CC(=O)O)C(=O)O)[C@H](C[C@@H](C)C[C@H](O)CCCC[C@@H](O)C[C@H](O)[C@H](C)N)OC(=O)C[C@@H](CC(=O)O)C(=O)O [fumonisin B1]
Bovine retinal pericytes [2]; 0.01 μM, two passages
  % inhibition of the apoptosis induced by AGE-methylglyoxal: 22%
Bovine retinal pericytes [2]; 0.01 μM, two passages, listed as Fumonisin B1, 0.01 µM
  % inhibition of the apoptosis induced by AGE-methylglyoxal: 20%
Bovine retinal pericytes [2]; 0.1 μM (results not shown)
  effect on the base apoptosis rate of cells cultured in BSA control: proapoptotic

## Cc1c(C)c2c(c(C)c1O)CCC(C)(C(=O)O)O2 (centres unmarked) [trilox]
Retina of diabetic rats
  loss / disappearance of pericytes in the retina of diabetic rats: prevent

## CC1=C(/C=C/C(C)=C/C=C/C(C)=C/C=C/C=C(C)/C=C/C=C(C)/C=C/C2=C(C)C[C@@H](O)CC2(C)C)C(C)(C)C[C@H](O)C1 [zeaxanthin]
Bovine retinal pericytes [2]; 2 μM, two passages
  % inhibition of the apoptosis induced by AGE-methylglyoxal: 50%

## z-DEVD-fmk
Bovine retinal pericytes [1]; 50 μM
  % inhibition of the stimulated production of DAG induced by AGE-methylglyoxal: not affected
  % inhibition of the stimulated production of ceramides induced by AGE-methylglyoxal: not affected
Bovine retinal pericytes [2]; 50 μM, two passages
  % inhibition of the apoptosis induced by AGE-methylglyoxal: almost total inhibition

## z-LEHD-fmk
Bovine retinal pericytes [1]; 50 μM
  % inhibition of the stimulated production of DAG induced by AGE-methylglyoxal: not affected
  % inhibition of the stimulated production of ceramides induced by AGE-methylglyoxal: not affected
Bovine retinal pericytes [2]; 50 μM, two passages
  % inhibition of the apoptosis induced by AGE-methylglyoxal: almost total inhibition

## z-VAD-fmk
Bovine retinal pericytes [1]; 50 μM
  % inhibition of the stimulated production of DAG induced by AGE-methylglyoxal: 100%
  % inhibition of the stimulated production of ceramides induced by AGE-methylglyoxal: 75%
Bovine retinal pericytes [2]; 50 μM, two passages
  % inhibition of the apoptosis induced by AGE-methylglyoxal: almost total inhibition

## z-VDVAD-fmk
Bovine retinal pericytes [2]; 50 μM, two passages
  % inhibition of the apoptosis induced by AGE-methylglyoxal: partial inhibition
Bovine retinal pericytes [2]; 50 μM, two passages, listed as z-VDVAD
  % inhibition of the apoptosis induced by AGE-methylglyoxal: partially inhibits
